Results taken from US6395467B1 (priority 1998, dated 2002).

How the values were obtained:
[1] = cited from earlier work; for Q (moles of CPA per 10 moles of water): pure CPA at Cv
[2] = Glass-forming tendency: concentration needed to vitrify (Cv), Q and qv*; assay type: physicochemical; conditions: for Moles of water/mole of CPA (10/Q): pure CPA at Cv; for qv* (Moles of water/mole of polar groups at Cv): pure CPA, Table 1
Description: The qv* method for identifying useful cryoprotectant solutions based on this concentration scale is: to select at least one cryoprotectant whose qv* is below 2.0, include it in a mixture with other cryoprotectants, determine the Cv of the resulting mixture in the normal way (see, for example, Fahy et al, Cryobiology 21: 407-426, 1984), calculate q* at Cv (qv*) (note: the number of moles of water can be readily determined from the weight of a given volume of solution minus the number of grams of all solutes, i.e., from the number of grams of water per unit volume or per unit weight), compare the resulting qv* value to the qv* values of alternative cryoprotectant solutions, and selecting lower qv* value solutions in general preference to higher qv* solutions. qv* values can be estimated adequately from published Q values by estimating that the densities of all solution components as pure substances are unchanged by being in solution with other substances (the validity of a similar approach in deriving Q from % w/v concentrations is discussed in Fahy, in: Low Temperature Biotechnology: Emerging Applications and Engineering Contributions, J.J. McGrath and K. R. Diller, eds, ASME, 1988, pp. 113146.)
“Cv” is the concentration needed to vitrify 5-10 ml of solution at a cooling rate of about 10° C./min.
“qv*=[(#moles of water)/(mole]/[(# polar groups)/(mole cryoprotectant)] or
qv*=(#moles of water per unit volume or per unit mass of solution)/(# moles of polar groups on penetrating cryoprotectants per unit volume or unit mass of solution) at Cv”.

[3] = system: rabbit renal cortical slices; experiment: Toxicity of cryoprotectant solutions to rabbit renal cortical slices (K/Na ratio after exposure, washout and 90 min at 25° C.); assay type: cell-based
Description: FIGS. 1 and 2 display a reanalysis (performed in early July of 1998) of public information (Fahy, Levy, and Ali, Cryobiology 24: 196213, 1987) on the toxicity of several vitrification solutions of known composition. These vitrification solutions will vitrify at 1,000 atmospheres and contain either 6% polyvinyl pyrrolidone of relative molecular mass 40 kDa [PVP K30] or 6% polyethylene glycol [PEG 8000]. The data set is advantageous because all solutions analyzed are vitrifiable, the data set has low standard errors, and toxicity was convincingly dissociated from osmotic factors (see Fahy, Levy, and Ali, 1987, for discussion). In this example, viability was defined by the ratio of primarily intracellular potassium to intracellular sodium (K/Na ratio) after cryoprotectant washout and active metabolism for 90 min at the optimum temperature of 25° C. The test system was rabbit renal cortical slices.
[…] Each step is 20 min except for 1X step, which is 40 min. All steps done at 0° C.

[4] = system: rat hepatocytes; experiment: Rat hepatocytes in suspension, trypan blue dye exclusion after cryoprotectant exposure or freezing to −140° C.; assay type: cell-based; conditions: 10% v/v
Method: A recent freezing experiment compared freezing of rat hepatocytes in suspension to −140° C. in the presence of either 10% v/v DMSO or 10% v/v Veg solutes. Relative to the initial viability, 98% of the Veg-treated, non-frozen hepatocytes were able to exclude trypan blue dye, whereas only 70% of the DMSO-treated, non-frozen hepatocytes retained their dye exclusion capability after addition and removal of DMSO alone. After freezing and thawing, 65% of the initial number of freshly isolated hepatocytes remained capable of excluding trypan blue dye, whereas only 60% of frozen-thawed hepatocytes retained this ability when frozen with DMSO.

[5] = system: rabbit kidney slices; experiment: Freezing of rabbit kidney slices to −130° C., K/Na ratio after freezing and thawing; assay type: cell-based; conditions: 30% w/v cryoprotectant, frozen to −130° C.
Method: A recent freezing experiment compared freezing of rabbit kidney slices to −130° C. in the presence of either 30% w/v DMSO or 30% w/v Veg solutes. The K/Na ratio after freezing and thawing in DMSO was 2.46+/−0.30, whereas the K/Na ratio after freezing and thawing in 30% w/v Veg solutes was 3.10+/−0.07 (p<0.05).

[6] = system: Human sperm; experiment: Human sperm freezing and thawing, motility; assay type: cell-based; conditions: 2 M, cryoprotectant not removed
Method: Human sperm was exposed to 2 M Veg solutes or 2 M glycerol near 0° C. using gradual addition methods, then frozen, thawed, and videotaped without removing the cryoprotectant.

Row | Structure (SMILES) | Q (moles of CPA per 10 moles of water) [1] | Moles of water/mole of CPA (10/Q) [2] | qv* (Moles of water/mole of polar groups at Cv) [2] | also measured
1 | OCCCO [1,3-propanediol] | 3.1 moles of CPA per 10 moles of water | 3.2 | 1.6 | 
2 | OCCO [Ethylene glycol] | 3.3 moles of CPA per 10 moles of water | 3.0 | 1.4 | recovery (viability, FIG. 3) ([3]; at Cv, EuroCollins vehicle): less than 50%; concentrations not overtly harmful ([3]; in D(1)F-EG mixtures): ≤ 30 % w/v
3 | O=C(CO)CO [1,3-dihydroxyacetone] |  | 5 | 1.7 | 
4 | CC(N)=O [Acetamide] | 4.1 moles of CPA per 10 moles of water | 2.4 | 1.2 | 
5 | C[S+](C)[O-] [DMSO, dimethyl sulfoxide] |  |  |  | hepatocytes capable of excluding trypan blue dye, of the initial number of freshly isolated hepatocytes ([4]; after freezing to −140° C. and thawing): 60%; hepatocytes able to exclude trypan blue dye, relative to the initial viability ([4]; non-frozen, after addition and removal): 70%; K/Na ratio after freezing and thawing [5]: 2.46+/−0.30
6 | OCC(O)CO [glycerol] |  |  |  | sperm motility after freezing and thawing [6]: largely quiescent upon thawing
7 | CC(=O)CO [Acetol, hydroxyacetone] | 3.6 moles of CPA per 10 moles of water | 2.8 | 1.4 | 
8 | CNC=O [N-Methyl-Formamide] | 3.9 moles of CPA per 10 moles of water | 2.6 | 1.3 | 
9 | CC(O)CO (centres unmarked) [1,2-propanediol] |  |  |  | qv* ([2]; pure agent, b117): about 2.6
10 | NC=O [formamide] |  |  |  | vitrification of aqueous solutions ([1]; agent alone): do not vitrify; maximum concentration associated with minimal injury ([3]; in D(1)F-EG mixtures, 57-58% w/v total): about 14%
